Test results from the supplement of paper PMC6045584.
± gives the standard deviation of the averaged measurements.

Key:
[1] = compound: COc1ccc(-c2cc3c(C)nc(N)nc3n([C@H]3CC[C@H](OCCO)CC3)c2=O)cn1; assay: surviving fraction relative to DMSO-only wells; higher = less growth inhibition; details: exposure time: 5 days
Summary of the method: (§1)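 Each tumour cell line was screened three times, and only lines with replicate Pearson r >0.7 and median Z' >0.3 were kept. Cells in log phase were seeded at 250–500 per well in 384-well plates, left 24 hours, then exposed continuously for five days to inhibitors at 0.5, 1, 5, 10, 50, 100, 500 and 1000 nM. Viability was read as CellTiter-Glo luminescence, with surviving fraction normalised to the median of DMSO-only wells.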

[2] = compound: Cn1ncnc1[C@H]1c2n[nH]c(=O)c3cc(F)cc(c23)N[C@@H]1c1ccc(F)cc1 [BMN-673]; assay: as above; details: exposure time: 5 days
Summary of the method: as §1

Row | Test System | surviving fraction ([1]; 0.5 nM) | surviving fraction ([1]; 1 nM) | surviving fraction ([1]; 5 nM) | surviving fraction ([1]; 10 nM) | surviving fraction ([1]; 50 nM) | surviving fraction ([1]; 100 nM) | surviving fraction ([1]; 500 nM) | surviving fraction ([1]; 1000 nM) | surviving fraction ([2]; 0.5 nM) | surviving fraction ([2]; 1 nM) | surviving fraction ([2]; 5 nM) | surviving fraction ([2]; 10 nM) | surviving fraction ([2]; 50 nM) | surviving fraction ([2]; 100 nM) | surviving fraction ([2]; 500 nM) | surviving fraction ([2]; 1000 nM)
1 | SG43 HEADNECK | 0.954 ± 0.097 | 1 ± 0.041 | 0.747 ± 0.054 | 0.613 ± 0.06 | 0.506 ± 0.046 | 0.427 ± 0.032 | 0.266 ± 0.02 | 0.168 ± 0.007 | 1.19 ± 0.23 | 0.909 ± 0.061 | 0.694 ± 0.044 | 0.678 ± 0.046 | 0.74 ± 0.093 | 0.703 ± 0.089 | 0.678 ± 0.091 | 0.785 ± 0.056
2 | SIHA CERVIX | 1.01 ± 0.032 | 1.02 ± 0.07 | 0.974 ± 0.062 | 0.93 ± 0.063 | 0.656 ± 0.025 | 0.536 ± 0.024 | 0.232 ± 0.0035 | 0.161 ± 0.011 | 1.01 ± 0.055 | 1.03 ± 0.053 | 1.15 ± 0.062 | 1.05 ± 0.013 | 0.929 ± 0.038 | 0.784 ± 0.13 | 0.602 ± 0.035 | 0.454 ± 0.041
3 | SJSA1 BONE | 1.04 ± 0.035 | 0.976 ± 0.023 | 0.989 ± 0.058 | 0.941 ± 0.027 | 0.743 ± 0.059 | 0.671 ± 0.028 | 0.2 ± 0.011 | 0.116 ± 0.0015 | 1.67 ± 0.078 | 1.72 ± 0.018 | 1.72 ± 0.12 | 1.86 ± 0.1 | 0.969 ± 0.054 | 1.27 ± 0.022 | 1.46 ± 0.06 | 1.12 ± 0.031
4 | SKBR3 BREAST | 0.863 ± 0.093 | 0.88 ± 0.073 | 0.833 ± 0.23 | 0.763 ± 0.15 | 0.434 ± 0.073 | 0.204 ± 0.043 | 0.058 ± 0.0053 | 0.0507 ± 0.0047 | 1.154 ± 0.0069 | 1.11 ± 0.12 | 0.863 ± 0.15 | 0.881 ± 0.044 | 0.774 ± 0.075 | 0.575 ± 0.078 | 0.492 ± 0.041 | 0.481 ± 0.014
5 | SNU475 LIVER | 0.94 ± 0.013 | 0.951 ± 0.022 | 0.891 ± 0.041 | 0.865 ± 0.012 | 0.625 ± 0.014 | 0.404 ± 0.036 | 0.127 ± 0.0076 | 0.0823 ± 0.0011 | 1.02 ± 0.034 | 1.01 ± 0.097 | 0.763 ± 0.47 | 0.99 ± 0.032 | 0.882 ± 0.087 | 0.851 ± 0.031 | 0.643 ± 0.025 | 0.508 ± 0.051
6 | SUM44 BREAST | 0.914 ± 0.026 | 0.974 ± 0.044 | 1.01 ± 0.027 | 0.957 ± 0.04 | 0.864 ± 0.043 | 0.747 ± 0.017 | 0.225 ± 0.028 | 0.151 ± 0.0051 | 1.16 ± 0.29 | 1.02 ± 0.16 | 0.976 ± 0.12 | 0.798 ± 0.029 | 1.03 ± 0.21 | 0.98 ± 0.15 | 1.09 ± 0.2 | 0.988 ± 0.11
7 | SUM149 BREAST | 1.02 ± 0.042 | 1.1 ± 0.1 | 0.963 ± 0.067 | 0.9127 ± 0.0085 | 0.697 ± 0.036 | 0.474 ± 0.03 | 0.161 ± 0.0021 | 0.0763 ± 0.0038 | 0.857 ± 0.051 | 0.721 ± 0.068 | 0.301 ± 0.019 | 0.226 ± 0.023 | 0.176 ± 0.017 | 0.163 ± 0.014 | 0.149 ± 0.0045 | 0.145 ± 0.024
8 | SUM149.B1*.S BREAST | 0.985 ± 0.03 | 1.02 ± 0.059 | 1.02 ± 0.032 | 0.995 ± 0.037 | 0.924 ± 0.011 | 0.823 ± 0.03 | 0.475 ± 0.014 | 0.339 ± 0.017 | 1.11 ± 0.036 | 1.03 ± 0.0064 | 1.05 ± 0.058 | 0.931 ± 0.059 | 0.808 ± 0.055 | 0.739 ± 0.063 | 0.451 ± 0.075 | 0.33 ± 0.052
9 | SUM159 BREAST | 1.1 ± 0.16 | 1.12 ± 0.18 | 1.1 ± 0.17 | 1.1 ± 0.17 | 1.05 ± 0.074 | 0.839 ± 0.036 | 0.181 ± 0.014 | 0.119 ± 0.006 | 1.12 ± 0.016 | 1.104 ± 0.0035 | 1.07 ± 0.013 | 1.06 ± 0.011 | 1.079 ± 0.0027 | 1.057 ± 0.0089 | 1.04 ± 0.013 | 0.957 ± 0.031
10 | SYO1 SYNOVIAL | 0.961 ± 0.013 | 0.912 ± 0.021 | 0.895 ± 0.061 | 0.825 ± 0.041 | 0.557 ± 0.0083 | 0.386 ± 0.035 | 0.118 ± 0.028 | 0.0698 ± 0.019 | 0.855 ± 0.052 | 0.783 ± 0.023 | 0.499 ± 0.0035 | 0.336 ± 0.0059 | 0.168 ± 0.0078 | 0.125 ± 0.0048 | 0.0544 ± 0.0063 | 0.0423 ± 0.00058
11 | T47D BREAST | 0.993 ± 0.043 | 0.975 ± 0.021 | 0.959 ± 0.02 | 0.913 ± 0.013 | 0.638 ± 0.018 | 0.414 ± 0.022 | 0.196 ± 0.0079 | 0.148 ± 0.0018 | 1.01 ± 0.04 | 0.975 ± 0.036 | 0.872 ± 0.051 | 0.82 ± 0.026 | 0.714 ± 0.019 | 0.654 ± 0.023 | 0.535 ± 0.017 | 0.455 ± 0.0098
12 | U2OS BONE | 0.98 ± 0.036 | 1.02 ± 0.019 | 0.9927 ± 0.0096 | 0.92 ± 0.05 | 0.794 ± 0.044 | 0.693 ± 0.029 | 0.277 ± 0.0042 | 0.202 ± 0.0051 | 0.9887 ± 0.0081 | 0.994 ± 0.055 | 0.969 ± 0.018 | 0.915 ± 0.029 | 0.834 ± 0.026 | 0.732 ± 0.029 | 0.658 ± 0.029 | 0.647 ± 0.038
13 | VCAP PROSTATE | 1.01 ± 0.05 | 1.08 ± 0.04 | 1.06 ± 0.14 | 0.983 ± 0.056 | 0.706 ± 0.027 | 0.52 ± 0.023 | 0.161 ± 0.013 | 0.0997 ± 0.016 | 1.11 ± 0.084 | 0.947 ± 0.086 | 0.995 ± 0.03 | 0.976 ± 0.08 | 0.758 ± 0.029 | 0.711 ± 0.12 | 0.397 ± 0.029 | 0.385 ± 0.017
14 | VP229 BREAST | 1.13 ± 0.11 | 1.07 ± 0.062 | 0.948 ± 0.046 | 0.844 ± 0.032 | 0.513 ± 0.078 | 0.383 ± 0.071 | 0.135 ± 0.02 | 0.0757 ± 0.018 | 1.09 ± 0.33 | 1.09 ± 0.16 | 1.1 ± 0.12 | 0.995 ± 0.091 | 0.969 ± 0.026 | 0.922 ± 0.17 | 0.951 ± 0.1 | 0.873 ± 0.19
15 | YAMATO SYNOVIAL | 1.15 ± 0.087 | 1.09 ± 0.066 | 1.01 ± 0.073 | 0.952 ± 0.057 | 0.469 ± 0.062 | 0.355 ± 0.0076 | 0.189 ± 0.014 | 0.272 ± 0.012 | 1.08 ± 0.09 | 1.05 ± 0.035 | 1.05 ± 0.07 | 0.852 ± 0.039 | 0.788 ± 0.014 | 0.675 ± 0.035 | 0.503 ± 0.029 | 0.452 ± 0.013
16 | ZR751 BREAST | 1.13 ± 0.17 | 1.04 ± 0.15 | 0.783 ± 0.13 | 0.708 ± 0.11 | 0.328 ± 0.039 | 0.182 ± 0.038 | 0.091 ± 0.013 | 0.0693 ± 0.012 | 1.23 ± 0.14 | 1.14 ± 0.15 | 1.04 ± 0.22 | 1 ± 0.15 | 1.01 ± 0.068 | 0.974 ± 0.11 | 1.04 ± 0.07 | 0.816 ± 0.017
